Laboratory results published in US7528107B2, “Methods of treating inflammation in mammalian tissues comprising administering human alpha-defensins” (Auburn University, priority 2005, dated 2009).
Entries after “also recorded” stand apart in the source; their conditions may differ.

Tests used:
Assay type in all cases: cell-based
[1] = tested on: IL-1β release from human monocytes; experiment: ATP mediated proIL-1β / mature IL-1β release from LPS-activated human monocytes (FIG. 2, FIG. 3); conditions: for processing of proIL-1β after it is released extracellularly: LPS-activated human monocytes treated with ATP, then α-defensins; for ATP-mediated IL-1β release from human monocytes: summary statement
Method: (§1) Lipopolysaccharide (LPS) activated, ^35S-methionine-labeled human monocytes treated with human α-defensins HNP-1 or HD-5 in the presence and absence of ATP were examined. Media and cell-associated fractions were harvested separately and IL-1β was recovered from each by immunoprecipitation. The resulting immuno-precipitates were analyzed by SDS-PAGE and autoradiography. Referring now to FIG. 2, in the absence of ATP, LPS activated monocytes released about 10% of ^35S-methionine-labeled proIL-1β (31 kDa) into the media, but no mature (17 kDa) IL-1β was detected. As expected, addition of ATP to the LPS-activated monocyte culture led to the release of 90% of newly synthesized proIL-1β from the cell and more than 90% of the proIL-1β was processed to mature IL-1β and detected in the media.
(§2) Peripheral blood monocytes where isolated from healthy volunteers and patients with inflammatory bowel disease and suspended in monocyte maintenance medium (RPMI 1640 medium, 5% FBS 25 mM HEPES and 1% Pen/Strep). Blood samples from healthy volunteers were collected at the Auburn University Medical Clinic under an approved protocol. Blood samples from inflammatory bowel disease patients were provided by Dr. W. Park McGehee of Internal Medicine Associates of Opelika, Ala., U.S.A.
(§3) Monocytes were first primed with lipopolysaccharides (LPS). Monocytes were allowed to adhere for two hours, after which medium supernatants were discarded. Attached cells were rinsed twice with maintenance medium and incubated in 1 ml of maintenance medium overnight at 37° C. in a 5% CO2 environment. The following morning LPS was added to some walls to achieve a final concentration of 10 ng/ml and the cultures were activated for two hours at 37° C. The media was then removed and 1 ml of fresh medium (RPMI 1640 containing 1% FVS 25 mM HEPES and 5 mM NaHCO3) was added to each well. These LPS-activated monocytes where then treated with ATP and subsequently, monocytes were selectively treated with α-defensins for interleukin-1β post transitional processing and release studies.
Human α-defensin HNP-1 was obtained from Peptide International of Louisville, Ky., U.S.A. Recombinant human α-defensin HD-5 was provided by Dr. Edith Porter of California State University, Los Angeles, U.S.A. The quality of the synthetic peptides were verified by their anti-bacterial activity. Synthetic human α-defensin HNP-1 was further purified by HPLC and compared to the natural HNP-1 by acid-urea PAGE. LPS-activated human monocytes were treated with 0, 1, 10 and 100 micrograms at 37° C. for three hours. It was also treated with 2 mm ATP for IL-1β maturation. Supernatants were then collected after a 5 minute centrifugation in microphage tubes. The concentration of mature IL-1β and the supernatants was quantified by ELISA(R&D Systems). Because the ELISA is reported by the manufacturer to recognize both pro and mature IL-1β species, presence of proIL-1β and mature IL-1β in the supernatant and cell lysates was also determined by western blot analysis. Briefly, proteins were precipitated from the supernatants by addition of trichloroacetic acid (TCA: 7.5% final concentration) and cholic acid (0.1% final concentration) to each sample. The percipate proteins were washed twice with 100% acetone to extract residual TCA and dissolved in 0.1 ml of SDS-PAGE sampled buffer. The cells where then washed once with PBS and lysed into 0.2 ml of lysis washed once with PBS and lysed into 0.2 ml of lysis buffer (25 mM HEPES 300 mM NaCl 1.5 mM MgCl2, 0.2 mM EDTA, 1% triton X-100, 2 mg/ml leupeptin and 10 mg/ml PMF). Cell lysates and TSA precipitated proteins from the supernatants where then subjected to 12% SDS-PAGE gels and then transferred to PVDV membranes for western blot analysis. IL-1β was probed with goat anti-IL-1β antibody and detected with the rabbit anti-goat IgG-horesradish peroxidase conjugate. […]

[2] = tested on: IL-1β release from human monocytes; experiment: as above
[3] = tested on: IL-1β release from human monocytes
[4] = tested on: IL-1β release from human monocytes; experiment: proIL-1β / mature IL-1β release from LPS-activated human monocytes (FIG. 2); conditions: for mature IL-1β in LPS activated cells / proIL-1β in LPS activated cells: overall statement, no concentration given; for LPS-mediated IL-1β release from human monocytes: summary statement
Method: as §1, §2, §3
Human α-defensin HNP-1 was obtained from Peptide International of Louisville, Ky., U.S.A. Recombinant human α-defensin HD-5 was provided by Dr. Edith Porter of California State University, Los Angeles, U.S.A. The quality of the synthetic peptides were verified by their anti-bacterial activity. Synthetic human α-defensin HNP-1 was further purified by HPLC and compared to the natural HNP-1 by acid-urea PAGE. LPS-activated human monocytes were treated with 0, 1, 10 and 100 micrograms at 37° C. for three hours. It was also treated with 2 mm ATP for IL-1β maturation. Supernatants were then collected after a 5 minute centrifugation in microphage tubes. The concentration of mature IL-1β and the supernatants was quantified by ELISA(R&D Systems). Because the ELISA is reported by the manufacturer to recognize both pro and mature IL-1β species, presence of proIL-1β and mature IL-1β in the supernatant and cell lysates was also determined by western blot analysis. Briefly, proteins were precipitated from the supernatants by addition of trichloroacetic acid (TCA: 7.5% final concentration) and cholic acid (0.1% final concentration) to each sample. The percipate proteins were washed twice with 100% acetone to extract residual TCA and dissolved in 0.1 ml of SDS-PAGE sampled buffer. The cells where then washed once with PBS and lysed into 0.2 ml of lysis washed once with PBS and lysed into 0.2 ml of lysis buffer (25 mM HEPES 300 mM NaCl 1.5 mM MgCl2, 0.2 mM EDTA, 1% triton X-100, 2 mg/ml leupeptin and 10 mg/ml PMF). Cell lysates and TSA precipitated proteins from the supernatants where then subjected to 12% SDS-PAGE gels and then transferred to PVDV membranes for western blot analysis. IL-1β was probed with goat anti-IL-1β antibody and detected with the rabbit anti-goat IgG-horesradish peroxidase conjugate.

[5] = addition of ATP to the LPS-activated monocyte culture, 35S-methionine label
[6] = FIG. 2 column 3, 20 ng/ml LPS + ATP + YVAD-CMK 100 μM
[7] = overall statement, no concentration given
[8] = physiological concentrations of 5 ug to 100 ug/ml
[9] = FIG. 3 columns 2-4, 20-100 μg/ml of HNP-1, 1 mM ATP, 3 hours
[10] = FIG. 2 column 7, 10 ng/ml LPS 2 hours
[11] = FIG. 2 columns 8 and 9, increase of 20-50 mg HNP-1
[12] = FIG. 3 columns 5 and 6, 20 and 100 μg/ml of HD-1, 1 mM ATP, 3 hours

Row | Compound | processing of proIL-1β after it is released extracellularly [1] | ATP mediated proIL-1β release [1, 7] | ATP mediated proIL-1β release [1, 8] | ATP-mediated IL-1β release from human monocytes [1] | Staphylococcus aureus alpha-toxin-mediated IL-1β release from human monocytes [3] | mature IL-1β in LPS activated cells [4] | proIL-1β in LPS activated cells [4] | LPS-mediated IL-1β release from human monocytes [4] | further results
1 | Nc1ncnc2c1ncn2[C@@H]1O[C@H](COP(=O)(O)OP(=O)(O)OP(=O)(O)O)[C@@H](O)[C@H]1O [ATP, Adenosine triphosphate, reference compound] |  |  |  |  |  |  |  |  | proIL-1β processed to mature IL-1β and detected in the media [1, 5]: more than 90%; release of newly synthesized proIL-1β from the cell [1, 5]: 90%
2 | CC(=O)N[C@@H](Cc1ccc(O)cc1)C(=O)N[C@H](C(=O)N[C@@H](C)C(=O)N[C@@H](CC(=O)O)C(=O)CCl)C(C)C [YVAD-CMK, reference compound] |  |  |  |  |  |  |  |  | mature IL-1β produced (western blot) [2, 6]: no mature IL-1β proteins; proIL-1β produced (western blot) [2, 6]: substantial amount of proIL-1β
3 | human neutrophil defensin 1 [HNP-1] | does not appear to affect | blocked in a dose dependant manner; also recorded: block ATP mediated proIL-1β release in a dose dependant manner | blocked ATP mediated proIL-1β release in a dose dependant manner | blocks | blocks | substantially completely block | inhibit; also recorded: substantially completely block | blocks | mature IL-1β from ATP activated cells [2, 9]: inhibited in a dose dependant manner; proIL-1β release from ATP activated cells [2, 9]: no proIL-1β is released; proIL-1β production ([4]; 20 ug/ml of HNP-1, FIG. 2): sufficient to block; mature IL-1β (western blot) [4, 10]: no mature IL-1β; proIL-1β (western blot) [4, 10]: some proIL-1β; mature IL-1β (western blot) [4, 11]: no mature IL-1β proteins were produced; proIL-1β (western blot) [4, 11]: no proIL-1β
4 | human α-defensin 5 (ATCYCRTGRCATRESLSGVCEISGRLYRLCCR; ALPHA DEFENSIN HD-5; listed as Homo sapiens) [Recombinant human α-defensin produced by Paneth cells] | does not appear to affect | blocked in a dose dependant manner; also recorded: block ATP mediated proIL-1β release in a dose dependant manner | blocked ATP mediated proIL-1β release in a dose dependant manner | blocks | blocks | substantially completely block | inhibit; also recorded: substantially completely block | blocks | mature IL-1β from ATP activated human monocytes [2, 12]: inhibited in a dose dependant manner; proIL-1β release from ATP activated human monocytes [2, 12]: no proIL-1β is released; release of proIL-1β from the LPS-activated monocyte culture ([4]; 10 ug/ml of HD-5, FIG. 2): completely blocked; proIL-1β expressed (western blot) ([4]; FIG. 2 columns 4, 5, 6, increasing amount of HD-5, 4 million cell equivalents activated with LPS): no proIL-1β
